# Columns and labels:
# [1] = target: T1, Taq polymerase (Thermus aquaticus, UniProt P19821); assay: Predicted thermostability (half-life) of Taq polymerase in the presence of diols; assay type: biochemical
# T1 construct: purchased Stratagene
# Description: It is possible that this discrepancy was due to the greatly diminished thermostability of the polymerase at the cutoff concentrations. Based on thermodynamic data, Taq polymerase in the absence of template is predicted to have a half-life of about 8 seconds at 95° C. in the presence of 0.9M 1,2-butanediol and 10 seconds in the presence of 0.6M 1,5-pentanediol. These values will be increased in the presence of template, but will still be very low, especially during the initial cycles when template concentration is limited.
# [2] = tested on: human prostate-specific membrane antigen (PSM) cDNA; assay: Pilot low temperature PCR of PSM with 1,5-pentanediol; assay type: biochemical; settings: for PSM Specificity: densitometric volume of target band as percent of total volume; for PSM Potency: normalized: 1,3-butanediol (95/72° C.) = 1
# Description: (§1) Amplification reactions were carried out under the following general conditions. Those skilled in the art will appreciate, however, that to the extent that the conditions (set forth in this application) required for specific experiments described in this example were inconsistent with the following general conditions, limited exceptions to the following general conditions were made The general conditions were as follows: 10 Mm Tris-HCl (Ph 8.8), 50 Mm KCl, 1.5 Mm MgCl2, 0.01% (w/v) gelatin, 0.2 Um primers, 0.06 ng/ul template, 0.2 Mm each Dntp, 0.04 U/ul Taq polymerase. The templates used were bovine brain N-WASP cDNA (1518 bp), a 996 by segment of human myeloid leukocyte c-jun cDNA, a 511 by segment of human prostate-specific membrane antigen (PSM) cDNA, and bovine brain glycolipid transfer protein (GTP) cDNA (660 bp). cDNA synthesis was carried out using the FIRST-STRAND® RT-PCR kit from Stratagene on the respective mRNAs purchased from Clontech. All amplification reactions for gene were carried out using a single master batch of cDNA. Taq polymerase and dNTPs were obtained from Stratagene. Primers were obtained from Genosys. Primer melting temperatures (Tms) were calculated using the Genosys oligo calculator program. The sequences of the primers were as follows.
# (§2) Polymerase chain reactions for the N-WASP gene were conducted on a ROBOCYCLER® Gradient 40 thermal cycler from Stratagene using 100 ul solutions in 600 ul thin-walled tubes. For expediency, amplification of c-jun, PSM and GTP was carried out in a ROBOCYCLER® Gradient 96 thermal cycler from Stratagene using 50 ul solutions in 200 ul thin-walled tubes. Prior to Taq polymerase addition, a hotstart protocol was carried out that consisted of an initial cycle of 95° C. for 5 minutes (11) to ensure complete first-strand separation, followed by a cycle of 54° C. for 5 minutes. Amplifications were run for 30 cycles. Denaturation was done for 1 minute at the minimum temperatures that yielded discernable amplification: 92° C. for N-WASP and 95° C. for c-jun, PSM and GTP. Extension was done at 72° C. for periods depending on target length: 2 minutes for N-WASP, 1.5 minutes for c-jun and GTP, and 1 minute for PSM. Annealings were carried out either at fixed concentrations of additives using temperature gradients of 38-56° C. for N-WASP and 44-58° C. for the other targets, or at varying concentrations of additives using fixed temperatures of 41° C. for N-WASP, 50° C. for c-jun and PSM, and 54° C. for GTP.
# (§3) Amplification products were analyzed by agarose gel electrophoresis on 0.8% agarose gels in which 20 ul reaction products were loaded with 4 ul loading buffer. Gels were stained with ethidium bromide, visualized on a UV transilluminator (Fisher), and documented by photography. Densitometric quantitation of amplification products was carried out using IMAGE SCANNER® and IMAGE MASTER® software from Amersham Pharmacia. Background correction was done using the software's rolling disc method. […] GTP was used as the target because it has the lowest GC content of the three templates used. PCR reactions were carried out in the presence of 1.0 and 1.5M 1,5-pentanediol under the conditions of 85° C. denaturing and 53° C. extension, using a 50° C. annealing temperature. In addition, 1.5M and 2.0M 1,5-pentandediol were tested using an 80° C. denaturing temperature, with identical annealing and extension temperature. Finally, 2.0, 2.5, and 3.0M 1,5-pentanediol were tested in GTP amplification employing a 75° C. denaturation temperature.
# PSM was also tested with 1.0 and 1.5M 1,5-pentanediol using a 85° C. denaturing/50° C. annealing/53° C. extension. The denaturation temperature was then lowered to 80° C., and 2.5M 1,5-pentanediol tested. Amplification of PSM using a 75° C. denaturing temperature was not attempted.
# [3] = tested on: 50% GC DNA; assay: Predicted cosolvent-induced Tm depression of DNA; assay type: physicochemical; settings: 1.0M 1,5-pentanediol, 0.7M 1,6-hexanediol, linearity not verified
# Description: The compounds utilized in the first phase (testing using 1.0M 1,5-pentanediol and 0.7M 1,6-hexanediol at temperatures between 46 and 62° C.) were chosen on the basis of the following rationale. The optimal additive for a low temperature PCR reaction is one that lowers the melting temperature of DNA as much as possible while minimally compromising polymerase activity. 1,5-Pentanediol and 1,6-hexanediol are both powerful DNA melting agents. In addition, it was found in the 62° C. activity studies that the rate of activity decline with concentration of 1,5-pentanediol was roughly equivalent to that of 1,2-butanediol, despite the fact that the former is a much stronger DNA denaturant. 1.0M 1,5-pentanediol and 0.7M 1,6-hexanediol are predicted to lower the Tm of a 50% GC DNA by approximately the same amount: 19° C.
# [4] = tested on: bovine brain glycolipid transfer protein (GTP) cDNA (660 bp); assay: Pilot low temperature PCR of GTP with 1,5-pentanediol; assay type: biochemical; settings: normalized: 1,5-pentanediol (95/72° C.) = 1
# Description: as §1, §2, §3
# [5] = 80/50/53° C., 2.5 M 1,5-pentanediol
# [6] = 85/50/53° C., 1.5 M 1,5-pentanediol
# [7] = 85/50/53° C., 1.5 M 1,5-pentanediol, listed as 1,5-pentanediol
# T1 sequence (P19821 whole entry): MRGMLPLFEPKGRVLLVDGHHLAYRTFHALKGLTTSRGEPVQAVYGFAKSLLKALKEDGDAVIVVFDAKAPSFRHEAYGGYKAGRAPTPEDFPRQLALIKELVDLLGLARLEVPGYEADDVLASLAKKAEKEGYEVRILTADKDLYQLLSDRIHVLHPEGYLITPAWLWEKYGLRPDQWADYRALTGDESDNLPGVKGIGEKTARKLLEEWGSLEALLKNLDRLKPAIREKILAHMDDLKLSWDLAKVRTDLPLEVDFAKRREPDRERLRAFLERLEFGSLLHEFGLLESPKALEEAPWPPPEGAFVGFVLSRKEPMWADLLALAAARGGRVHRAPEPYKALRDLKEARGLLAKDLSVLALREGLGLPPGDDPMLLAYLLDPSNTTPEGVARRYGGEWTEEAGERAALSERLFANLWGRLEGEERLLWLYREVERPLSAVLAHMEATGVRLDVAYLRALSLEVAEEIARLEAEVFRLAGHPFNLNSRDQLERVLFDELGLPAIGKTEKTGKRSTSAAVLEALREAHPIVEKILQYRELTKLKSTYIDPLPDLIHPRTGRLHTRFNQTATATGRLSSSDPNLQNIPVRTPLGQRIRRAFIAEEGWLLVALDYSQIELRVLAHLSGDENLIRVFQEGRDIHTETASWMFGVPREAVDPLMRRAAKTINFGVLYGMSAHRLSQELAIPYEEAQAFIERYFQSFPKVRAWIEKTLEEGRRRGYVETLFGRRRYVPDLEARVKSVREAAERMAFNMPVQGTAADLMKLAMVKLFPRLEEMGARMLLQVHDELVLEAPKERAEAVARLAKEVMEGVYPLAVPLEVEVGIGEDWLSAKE
smiles,measurement,setting,value
"OCCCCCO [1,5-Pentanediol]",half-life of Taq polymerase,[1],~10 s
same,PSM Specificity,[2]; [5],92%
same,PSM Potency,[2]; [5],1.40
same,PSM Potency,"[2]; 80/50/53° C., 2.5 M 1,5-pentanediol, listed as 1,5-pentanediol",Substantial amplification
same,PSM Potency,"[2]; 85/50/53° C., 1.0 M 1,5-pentanediol",0.00
same,PSM Potency,"[2]; 85/50/53° C., 1.0 M 1,5-pentanediol, listed as 1,5-pentanediol",did not amplify the target sequence
same,PSM Specificity,[2]; [6],86%
same,PSM Potency,[2]; [6],2.08
same,PSM Potency,[2]; [7],successful
same,lowering of the Tm of a 50% GC DNA,[3],~19 °C
same,GTP Potency,"[4]; 75/50/53° C., 2.0 M 1,5-pentanediol",0.00
same,GTP Potency,"[4]; 75/50/53° C., 2.0 M 1,5-pentanediol, listed as 1,5-pentanediol",unsuccessful
same,GTP Potency,"[4]; 75/50/53° C., 2.5 M 1,5-pentanediol",0.00
same,GTP Potency,"[4]; 75/50/53° C., 2.5 M 1,5-pentanediol, listed as 1,5-pentanediol",unsuccessful
same,GTP Potency,"[4]; 75/50/53° C., 3.0 M 1,5-pentanediol",0.53
same,GTP Potency,"[4]; 75/50/53° C., 3.0 M 1,5-pentanediol, listed as 1,5-pentanediol",succeeded in producing amplification
same,GTP Potency,"[4]; 80/50/53° C., 1.5 M 1,5-pentanediol",0.00
same,GTP Potency,"[4]; 80/50/53° C., 1.5 M 1,5-pentanediol, listed as 1,5-pentandediol",failed to produce any discernable amplification
same,GTP Potency,"[4]; 80/50/53° C., 2.0 M 1,5-pentanediol",2.69
same,GTP Potency,"[4]; 80/50/53° C., 2.0 M 1,5-pentanediol, listed as 1,5-pentandediol",high yield
same,GTP Potency,"[4]; 85/50/53° C. denaturation/annealing/extension, 1.0 M 1,5-pentanediol",2.78
same,GTP Potency,"[4]; 85/50/53° C. denaturation/annealing/extension, 1.0 M 1,5-pentanediol, listed as 1,5-pentanediol",strong amplification
same,GTP Potency,[4]; [6],2.64
same,GTP Potency,[4]; [7],strong amplification

# Reference: patent publication US7772383B2, “Chemical PCR: Compositions for enhancing polynucleotide amplification reactions” (The Trustees of Princeton University, priority 2002, dated 2010)
